Experimental data as given in patent US9844534B2, “PKC delta inhibitors for use as therapeutics” (Faller & Williams Technology, LLC, priority 2012, dated 2017).

Columns and labels:
CNDT 2.5 cells = test: Cell proliferation assay (MTT/MTS); assay type: cell-based, human
Excerpt: (§1) Cell Lines: BON1, a human foregut (pancreatic) carcinoid tumor cell line (Parekh et al. 1994) was obtained from Kjell Oberg (Uppsala University, Sweden) through Dr. Evan Vosburgh. H727 cells, derived from a human bronchopulmonary carcinoid tumor (Schuller et al. 1987), were purchased from ATCC. The CNDT 2.5 cell line, initially described as a human midgut carcinoid tumor cell line (Van Buren et al. 2007), was provided by Dr. Lee Ellis, (MD Anderson Cancer Center). The provenance of this cell line is currently under review by the originator. BONI, H727, MCF10 and CNDT 2.5 cells were propagated in 10% FBS (Invitrogen); Dulbecco's Modification of Earle's Media/Hams F-12 50:50 media (Cellgro); 2 mM L-Glutamine (Invitrogen); 200 U Penicillin/ml; 200 μg Streptomycin/ml (Invitrogen); 10 ng/ml Nerve Growth Factor (Invitrogen); 1×MEM Non-Essential Amino Acids (Cellgro); 1×MEM Vitamin Solution (Cellgro); 1 mM Sodium Pyruvate; 0.015 M HEPES buffer (pH7.3) (American Bioanalytical).
(§2) Cell Proliferation Assays—Cell proliferation was assessed using an MTT [3-(4,5-dimethylthiazol-2-yl)-2,5-diphenyltetrazolium bromide] assay (Roche, Mannheim, Germany). The number of viable cells growing in a single well on a 96-well microtiter plate was estimated by adding 10 μl of MTT solution (5 mg/ml in phosphate-buffered saline [PBS]). After 4 h of incubation at 37° C., the stain is diluted with 100 μl of dimethyl sulfoxide. The optical densities are quantified at a test wavelength of 570 nm and a reference wavelength of 690 nm on a multiwell spectrophotometer. In some assays, MTS was used as substrate (Promega, Madison, Wis.), and the absorbance of the product was monitored at 490 nm.

BON1 cells = test: Cell proliferation assay (MTT/MTS); assay type: cell-based, human
Excerpt: as §1, §2

H727 cells [1] = test: Cell proliferation assay (MTT/MTS); assay type: cell-based, human
Excerpt: as §1, §2

PKC alpha = molecular target: T1, PKC alpha (Homo sapiens, UniProt P17252); test: PKC kinase activity assay (Omnia Kinase Assay); assay type: biochemical
T1 construct: purchased Invitrogen
Description: PKC Kinase Activity Assays: Assays were carried out using recombinant PKC alpha or PKC gamma, (Invitrogen) and the Omnia® Kinase Assays (Invitrogen) with a “PKC kinase-specific” peptide substrate. Incorporation of a chelation-enhanced fluorophore (CHEF) results in an increase in fluorescence ex360/em485) upon phosphorylation. The kit was used according to the manufacturer's instructions.

H727 cells [2] = test: Clonogenic assay; assay type: cell-based, human; details: H727, exposure 6-72 hr, replated without inhibitor
Description: Clonogenic Assays: 100,000 cells were seeded on 100 mm dishes 5 with 10 ml media per dish (Li et al. 2004). […] Cells were trypsinized; counted via Trypan Blue Exclusion Method in order to determine the number of live cells in the sample, and 500 live cells were seeded in triplicate onto 6 well plates. Cells were monitored for appropriate colony size and re-fed every three to four days. At Day 17, cells were stained with ethidium bromide (Guda et al. 2007) and counted using UVP LabWorks software.
LDH release assesses cytotoxic damage sufficient to compromise membrane integrity over a relatively short time-span. An alternative method, which assesses lethal, but not necessarily immediate, cumulative damage to the tumor cell is a clonogenic assay. In this assay, tumor cells which remain viable after exposure to the compound are tested for their ability to proliferate sufficiently over time to form colonies of tumor cells. H727 treated with vehicle or a PKC delta inhibitor at sub-optimal concentrations varying durations. After replating of viable cells in media without inhibitor, colony numbers were quantitated over time.

PKC delta protein = details: longer periods of exposure; no effect on levels of other PKC isozymes; cited from earlier work
[3] = tested on: nontumorigenic murine or human cells; details: same culture conditions; cited from earlier work
PKC delta = PKC delta (Homo sapiens, UniProt Q05655); details: cultured cells, given as 'in vivo'; read-out: IC50, inhibition of PKC delta in cultured cells; cited from earlier work
H727 cells [4] = test: Cytotoxicity assay (LDH release); assay type: cell-based, human
Excerpt: Briefly, total culture medium was cleared by centrifugation. For assay of released LDH, supernatants were collected.

PKC delta, sequence (Q05655 whole entry): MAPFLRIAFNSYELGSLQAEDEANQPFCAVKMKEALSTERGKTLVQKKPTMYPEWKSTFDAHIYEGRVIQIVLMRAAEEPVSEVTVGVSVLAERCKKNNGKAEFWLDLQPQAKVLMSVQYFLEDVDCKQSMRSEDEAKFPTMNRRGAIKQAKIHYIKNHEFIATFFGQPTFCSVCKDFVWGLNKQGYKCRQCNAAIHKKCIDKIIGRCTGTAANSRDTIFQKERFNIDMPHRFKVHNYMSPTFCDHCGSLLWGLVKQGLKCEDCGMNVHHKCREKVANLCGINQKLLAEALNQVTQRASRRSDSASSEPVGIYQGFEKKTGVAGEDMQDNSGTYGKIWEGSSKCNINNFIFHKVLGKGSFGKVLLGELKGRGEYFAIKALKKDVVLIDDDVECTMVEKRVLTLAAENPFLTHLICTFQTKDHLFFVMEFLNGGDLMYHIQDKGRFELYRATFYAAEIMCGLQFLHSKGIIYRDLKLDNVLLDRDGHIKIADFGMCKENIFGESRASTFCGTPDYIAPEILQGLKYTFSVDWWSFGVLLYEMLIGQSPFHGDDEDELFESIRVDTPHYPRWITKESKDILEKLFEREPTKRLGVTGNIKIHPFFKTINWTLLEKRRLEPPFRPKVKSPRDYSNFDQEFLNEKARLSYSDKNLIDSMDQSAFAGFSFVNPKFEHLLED

| Compound | effect on proliferation (CNDT 2.5 cells; CNDT, siRNA knockdown, MTS) | effect on proliferation (BON1 cells; BON1, siRNA knockdown, MTS) | reduction in relative cell numbers (CNDT 2.5 cells; CNDT 2.5, by 72 hrs, highest concentrations tested) | growth-inhibitory effect on long-term exposure (CNDT 2.5 cells; CNDT, sub-optimal concentration (10 μM), re-fed with inhibitor after 72 hr) | IC50 (CNDT 2.5 cells; Homo sapiens, CNDT 2.5, by 48 hrs, read-out: IC50, decrease in cell number) | reduction in relative cell numbers (H727 cells [1]; H727, by 72 hrs, highest concentrations tested) | IC50 (H727 cells [1]; Homo sapiens, NCI-H727, H727, by 48 hrs, read-out: IC50, decrease in cell number) | reduction in relative cell numbers (BON1 cells; BON1, by 72 hrs, highest concentrations tested) | growth-inhibitory effect on long-term exposure (BON1 cells; BON1, sub-optimal concentration (10 μM), re-fed with inhibitor after 72 hr) | duration of exposure needed to inhibit proliferation (washout) (BON1 cells; BON1, sub-optimal concentration, inhibitor washed out, growth assessed over next 72 hrs) | IC50 (BON1 cells; Homo sapiens, BON1, by 48 hrs, read-out: IC50, decrease in cell number) | IC50 (PKC alpha) | effect on clonogenic capacity versus DMSO control (H727 cells [2]) | down-regulation of PKC delta protein in cells (PKC delta protein) | effect on growth of nontumorigenic cells [3] | IC50 (PKC delta) | cytotoxicity as assessed by LDH release (H727 cells [4]; H727, 24, 48 and 72 hours) | LDH release versus vehicle control, significance (H727 cells [4]; H727, p<0.003) |
| --- | --- | --- | --- | --- | --- | --- | --- | --- | --- | --- | --- | --- | --- | --- | --- | --- | --- | --- |
| PKC delta-specific siRNA: siRNA duplexes targeting PKC delta (SEQ ID NO 1 and 2), obtained from Qiagen (chain 1 GAUGAAGGAGGCGCUCAGTT; chain 2 GGCUGAGUUCUGGCUGGACTT; chemistry not given here) | profound inhibition of proliferation | profound inhibition of proliferation | – | – | – | – | – | – | – | – | – | – | – | – | – | – | – | – |
| CC(=O)c1c(O)c(C)c(O)c(Cc2c(O)c3c(c(C(=O)/C=C/c4ccccc4)c2O)OC(C)(C)C=C3)c1O [rottlerin] | – | – | significant reduction in relative cell numbers | growth-inhibitory effects persisted to 168 hr | ~5 µM | significant reduction in relative cell numbers | ~5 µM | significant reduction in relative cell numbers | growth-inhibitory effects persisted to 168 hr | statistically significant by 24 hr of exposure | ~5 µM | > 50 µM | reached significance (p=0.0051) at 6 hr of exposure | significantly down-regulates PKC delta protein | no significant effect on the growth | 5 µM | cytotoxicity increasing as a function of time and concentration | reached significance by 24 hr of exposure |
